Measurements taken from ChEMBL document CHEMBL4219190, “Studies on synthesis of novel pyrido[2,3-d]pyrimidine derivatives, evaluation of their antimicrobial activity and molecular docking” (Bioorg Med Chem Lett, 2018).
Converted amounts (≈) assume the structure as drawn. The source made the active and inactive calls. The calls are words filed in the database; no cut-off is given here.

Assays:
Bacillus subtilis [1] = test: Bactericidal activity against Bacillus subtilis MTCC 121 incubated for 24 hrs followed by transfer of microbial suspension to Mueller Hinton agar plates and measured after 24 hrs post transfer; format: functional
Bacillus subtilis [2] = test: Antibacterial activity against Bacillus subtilis MTCC 121 after 24 hrs by well diffusion method; format: functional
Staphylococcus aureus [3] = test: Antibacterial activity against Staphylococcus aureus MTCC 96 after 24 hrs by well diffusion method; format: functional
Staphylococcus aureus [4] = test: Antibacterial activity against Staphylococcus aureus MLS16 MTCC 2940 after 24 hrs by well diffusion method; format: functional
Micrococcus luteus [5] = test: Antibacterial activity against Micrococcus luteus MTCC 2470 after 24 hrs by well diffusion method; format: functional
Raoultella planticola [6] = test: Antibacterial activity against Klebsiella planticola MTCC 530 after 24 hrs by well diffusion method; format: functional
Escherichia coli [7] = test: Antibacterial activity against Escherichia coli MTCC 739 after 24 hrs by well diffusion method; format: functional
Pseudomonas aeruginosa [8] = test: Antibacterial activity against Pseudomonas aeruginosa MTCC 2453 after 24 hrs by well diffusion method; format: functional
Staphylococcus aureus [9] = test: Bactericidal activity against Staphylococcus aureus MTCC 96 incubated for 24 hrs followed by transfer of microbial suspension to Mueller Hinton agar plates and measured after 24 hrs post transfer; format: functional; settings: MTCC 96, 24 h
Staphylococcus aureus [10] = test: Bactericidal activity against Staphylococcus aureus MLS16 MTCC 2940 incubated for 24 hrs followed by transfer of microbial suspension to Mueller Hinton agar plates and measured after 24 hrs post transfer; format: functional
Micrococcus luteus [11] = test: Bactericidal activity against Micrococcus luteus MTCC 2470 incubated for 24 hrs followed by transfer of microbial suspension to Mueller Hinton agar plates and measured after 24 hrs post transfer; format: functional
Raoultella planticola [12] = test: Bactericidal activity against Klebsiella planticola MTCC 530 incubated for 24 hrs followed by transfer of microbial suspension to Mueller Hinton agar plates and measured after 24 hrs post transfer; format: functional
Escherichia coli [13] = test: Bactericidal activity against Escherichia coli MTCC 739 incubated for 24 hrs followed by transfer of microbial suspension to Mueller Hinton agar plates and measured after 24 hrs post transfer; format: functional
Pseudomonas aeruginosa [14] = test: Bactericidal activity against Pseudomonas aeruginosa MTCC 2453 incubated for 24 hrs followed by transfer of microbial suspension to Mueller Hinton agar plates and measured after 24 hrs post transfer; format: functional
Candida albicans [15] = test: Antifungal activity against Candida albicans MTCC 183 after 24 hrs by well diffusion method; format: functional; settings: MTCC 183, 24 h
Candida albicans [16] = test: Antifungal activity against Candida albicans MTCC 227 after 24 hrs by well diffusion method; format: functional
Candida albicans [17] = test: Antifungal activity against Candida albicans MTCC 854 after 24 hrs by well diffusion method; format: functional
Candida albicans [18] = test: Antifungal activity against Candida albicans MTCC 1637 after 24 hrs by well diffusion method; format: functional
Candida albicans [19] = test: Antifungal activity against Candida albicans MTCC 3018 after 24 hrs by well diffusion method; format: functional; settings: MTCC 3018, 24 h
Candida albicans [20] = test: Antifungal activity against Candida albicans MTCC 3017 after 24 hrs by well diffusion method; format: functional; settings: MTCC 3017, 24 h
Candida albicans [21] = test: Antifungal activity against Candida albicans MTCC 3958 after 24 hrs by well diffusion method; format: functional; settings: MTCC 3958, 24 h
Candida albicans [22] = test: Antifungal activity against Candida albicans MTCC 4748 after 24 hrs by well diffusion method; format: functional; settings: MTCC 4748, 24 h
Candida albicans [23] = test: Antifungal activity against Candida albicans MTCC 7315 after 24 hrs by well diffusion method; format: functional; settings: MTCC 7315, 24 h
Candida parapsilosis [24] = test: Antifungal activity against Candida parapsilosis MTCC 1744 after 24 hrs by well diffusion method; format: functional
[Candida] aaseri [25] = Antifungal activity against Candida aaseri MTCC 1962 after 24 hrs by well diffusion method; format: functional; settings: Yamadazyma aaseri, MTCC 1962, 24 h
Nakaseomyces glabratus [26] = test: Antifungal activity against Candida glabrata MTCC 3019 after 24 hrs by well diffusion method; format: functional; settings: MTCC 3019, 24 h
Pichia kudriavzevii [27] = test: Antifungal activity against Candida krusei MTCC 3020 after 24 hrs by well diffusion method; format: functional
Pichia sporocuriosa [28] = test: Antifungal activity against Issatchenkia hanoiensis MTCC 4755 after 24 hrs by well diffusion method; format: functional; settings: MTCC 4755, 24 h
Candida albicans [29] = test: Fungicidal activity against Candida albicans MTCC 183 incubated for 24 hrs followed by transfer of microbial suspension to Sabouraud dextrose agar plates and measured after 24 hrs post transfer; format: functional; settings: MTCC 183, 24 h
Candida albicans [30] = test: Fungicidal activity against Candida albicans MTCC 227 incubated for 24 hrs followed by transfer of microbial suspension to Sabouraud dextrose agar plates and measured after 24 hrs post transfer; format: functional
Candida albicans [31] = test: Fungicidal activity against Candida albicans MTCC 854 incubated for 24 hrs followed by transfer of microbial suspension to Sabouraud dextrose agar plates and measured after 24 hrs post transfer; format: functional
Candida albicans [32] = test: Fungicidal activity against Candida albicans MTCC 1637 incubated for 24 hrs followed by transfer of microbial suspension to Sabouraud dextrose agar plates and measured after 24 hrs post transfer; format: functional
Candida albicans [33] = test: Fungicidal activity against Candida albicans MTCC 3017 incubated for 24 hrs followed by transfer of microbial suspension to Sabouraud dextrose agar plates and measured after 24 hrs post transfer; format: functional; settings: MTCC 3017, 24 h
Candida albicans [34] = test: Fungicidal activity against Candida albicans MTCC 3018 incubated for 24 hrs followed by transfer of microbial suspension to Sabouraud dextrose agar plates and measured after 24 hrs post transfer; format: functional; settings: MTCC 3018, 24 h
Candida albicans [35] = test: Fungicidal activity against Candida albicans MTCC 3958 incubated for 24 hrs followed by transfer of microbial suspension to Sabouraud dextrose agar plates and measured after 24 hrs post transfer; format: functional; settings: MTCC 3958, 24 h
Candida albicans [36] = test: Fungicidal activity against Candida albicans MTCC 4748 incubated for 24 hrs followed by transfer of microbial suspension to Sabouraud dextrose agar plates and measured after 24 hrs post transfer; format: functional; settings: MTCC 4748, 24 h
Candida albicans [37] = test: Fungicidal activity against Candida albicans MTCC 7315 incubated for 24 hrs followed by transfer of microbial suspension to Sabouraud dextrose agar plates and measured after 24 hrs post transfer; format: functional; settings: MTCC 7315, 24 h
Candida parapsilosis [38] = test: Fungicidal activity against Candida parapsilosis MTCC 1744 incubated for 24 hrs followed by transfer of microbial suspension to Sabouraud dextrose agar plates and measured after 24 hrs post transfer; format: functional
[Candida] aaseri [39] = Fungicidal activity against Candida aaseri MTCC 1962 incubated for 24 hrs followed by transfer of microbial suspension to Sabouraud dextrose agar plates and measured after 24 hrs post transfer; format: functional; settings: Yamadazyma aaseri, MTCC 1962, 24 h
Nakaseomyces glabratus [40] = test: Fungicidal activity against Candida glabrata MTCC 3019 incubated for 24 hrs followed by transfer of microbial suspension to Sabouraud dextrose agar plates and measured after 24 hrs post transfer; format: functional; settings: MTCC 3019, 24 h
Pichia kudriavzevii [41] = test: Fungicidal activity against Candida krusei MTCC 3020 incubated for 24 hrs followed by transfer of microbial suspension to Sabouraud dextrose agar plates and measured after 24 hrs post transfer; format: functional
Pichia sporocuriosa [42] = test: Fungicidal activity against Issatchenkia hanoiensis MTCC 4755 incubated for 24 hrs followed by transfer of microbial suspension to Sabouraud dextrose agar plates and measured after 24 hrs post transfer; format: functional; settings: MTCC 4755, 24 h
Bacillus subtilis [43] = test: Antibiofilm activity against Bacillus subtilis MTCC 121 after 24 hrs by crystal violet staining-based assay; format: functional, organism-based
Staphylococcus aureus [44] = test: Antibiofilm activity against Staphylococcus aureus MTCC 96 after 24 hrs by crystal violet staining-based assay; format: functional, organism-based; settings: Staphylococcus aureus, MTCC 96, 24 h; read-out: IC50
Staphylococcus aureus [45] = test: Antibiofilm activity against Staphylococcus aureus MLS16 MTCC 2940 after 24 hrs by crystal violet staining-based assay; format: functional, organism-based
Pseudomonas aeruginosa [46] = test: Antibiofilm activity against Pseudomonas aeruginosa MTCC 2453 after 24 hrs by crystal violet staining-based assay; format: functional, organism-based
Raoultella planticola [47] = test: Antibiofilm activity against Klebsiella planticola MTCC 530 after 24 hrs by crystal violet staining-based assay; format: functional, organism-based

O=C(NCCO)c1nc(-c2ccccc2)c2c(C(F)(F)F)cc(-c3ccccc3)nc2n1
MBC (Bacillus subtilis [1]): inactive | MIC (Bacillus subtilis [2]): inactive | MIC (Staphylococcus aureus [3]; MTCC 96, 24 h): 31.2 µg/mL (≈ 71.2 µM) | MIC (Staphylococcus aureus [4]): inactive | MIC (Micrococcus luteus [5]): inactive | MIC (Raoultella planticola [6]): inactive | MIC (Escherichia coli [7]): inactive | MIC (Pseudomonas aeruginosa [8]): inactive | MBC (Staphylococcus aureus [9]): 62.4 µg/mL (≈ 142 µM) | MBC (Staphylococcus aureus [10]): inactive | MBC (Micrococcus luteus [11]): inactive | MBC (Raoultella planticola [12]): inactive | MBC (Escherichia coli [13]): inactive | MBC (Pseudomonas aeruginosa [14]): inactive | MIC (Candida albicans [15]): 31.2 µg/mL (≈ 71.2 µM) | MIC (Candida albicans [16]): inactive | MIC (Candida albicans [17]): inactive | MIC (Candida albicans [18]): inactive | MIC (Candida albicans [19]): 15.6 µg/mL (≈ 35.6 µM) | MIC (Candida albicans [20]): 31.2 µg/mL (≈ 71.2 µM) | MIC (Candida albicans [21]): 31.2 µg/mL (≈ 71.2 µM) | MIC (Candida albicans [22]): 62.5 µg/mL (≈ 143 µM) | MIC (Candida albicans [23]): 31.2 µg/mL (≈ 71.2 µM) | MIC (Candida parapsilosis [24]): inactive | MIC ([Candida] aaseri [25]): 31.2 µg/mL (≈ 71.2 µM) | MIC (Nakaseomyces glabratus [26]): 15.6 µg/mL (≈ 35.6 µM) | MIC (Pichia kudriavzevii [27]; MTCC 3020, 24 h): 31.2 µg/mL (≈ 71.2 µM) | MIC (Pichia sporocuriosa [28]): 15.6 µg/mL (≈ 35.6 µM) | MFC (Candida albicans [29]): 62.5 µg/mL (≈ 143 µM) | MFC (Candida albicans [30]): inactive | MFC (Candida albicans [31]): inactive | MFC (Candida albicans [32]): inactive | MFC (Candida albicans [33]): 62.5 µg/mL (≈ 143 µM) | MFC (Candida albicans [34]): 31.2 µg/mL (≈ 71.2 µM) | MFC (Candida albicans [35]): 62.5 µg/mL (≈ 143 µM) | MFC (Candida albicans [36]): 62.5 µg/mL (≈ 143 µM) | MFC (Candida albicans [37]): 62.5 µg/mL (≈ 143 µM) | MFC (Candida parapsilosis [38]): inactive | MFC ([Candida] aaseri [39]): 31.2 µg/mL (≈ 71.2 µM) | MFC (Nakaseomyces glabratus [40]): 31.2 µg/mL (≈ 71.2 µM) | MFC (Pichia kudriavzevii [41]; MTCC 3020, 24 h): 62.5 µg/mL (≈ 143 µM) | MFC (Pichia sporocuriosa [42]): 15.6 µg/mL (≈ 35.6 µM) | IC50 (Bacillus subtilis [43]): Not Active | IC50 (Staphylococcus aureus [44]): 21.6 µg/mL (≈ 49.3 µM) | IC50 (Staphylococcus aureus [45]): Not Active | IC50 (Pseudomonas aeruginosa [46]): Not Active | IC50 (Raoultella planticola [47]): Not Active

O=C(c1nc(-c2ccccc2)c2c(C(F)(F)F)cc(-c3ccccc3)nc2n1)N1CCCC1
MIC (Bacillus subtilis [2]): inactive | MIC (Staphylococcus aureus [3]): inactive | MIC (Staphylococcus aureus [4]): inactive | MIC (Micrococcus luteus [5]): inactive | MIC (Raoultella planticola [6]): inactive | MIC (Escherichia coli [7]): inactive | MIC (Pseudomonas aeruginosa [8]): inactive | MIC (Candida albicans [15]): 7.8 µg/mL (≈ 17.4 µM) | MIC (Candida albicans [16]; MTCC 227, 24 h): 15.6 µg/mL (≈ 34.8 µM) | MIC (Candida albicans [17]; MTCC 854, 24 h): 7.8 µg/mL (≈ 17.4 µM) | MIC (Candida albicans [18]; MTCC 1637, 24 h): 7.8 µg/mL (≈ 17.4 µM) | MIC (Candida albicans [19]): 31.2 µg/mL (≈ 69.6 µM) | MIC (Candida albicans [20]): 7.8 µg/mL (≈ 17.4 µM) | MIC (Candida albicans [21]): 31.2 µg/mL (≈ 69.6 µM) | MIC (Candida albicans [22]): 62.5 µg/mL (≈ 139 µM) | MIC (Candida albicans [23]): 15.6 µg/mL (≈ 34.8 µM) | MIC (Candida parapsilosis [24]; MTCC 1744, 24 h): 15.6 µg/mL (≈ 34.8 µM) | MIC ([Candida] aaseri [25]): 7.8 µg/mL (≈ 17.4 µM) | MIC (Nakaseomyces glabratus [26]): 31.2 µg/mL (≈ 69.6 µM) | MIC (Pichia kudriavzevii [27]): inactive | MIC (Pichia sporocuriosa [28]): 31.2 µg/mL (≈ 69.6 µM) | MFC (Candida albicans [29]): 15.6 µg/mL (≈ 34.8 µM) | MFC (Candida albicans [30]; MTCC 227, 24 h): 31.2 µg/mL (≈ 69.6 µM) | MFC (Candida albicans [31]; MTCC 854, 24 h): 15.6 µg/mL (≈ 34.8 µM) | MFC (Candida albicans [32]; MTCC 1637, 24 h): 15.6 µg/mL (≈ 34.8 µM) | MFC (Candida albicans [33]): 15.6 µg/mL (≈ 34.8 µM) | MFC (Candida albicans [34]): 62.5 µg/mL (≈ 139 µM) | MFC (Candida albicans [35]): 62.5 µg/mL (≈ 139 µM) | MFC (Candida albicans [36]): 62.5 µg/mL (≈ 139 µM) | MFC (Candida albicans [37]): 31.2 µg/mL (≈ 69.6 µM) | MFC (Candida parapsilosis [38]; Lodderomyces parapsilosis, MTCC 1744, 24 h): 15.6 µg/mL (≈ 34.8 µM) | MFC ([Candida] aaseri [39]): 15.6 µg/mL (≈ 34.8 µM) | MFC (Nakaseomyces glabratus [40]): 31.2 µg/mL (≈ 69.6 µM) | MFC (Pichia kudriavzevii [41]): inactive | MFC (Pichia sporocuriosa [42]): 62.5 µg/mL (≈ 139 µM)
